How the values were obtained:
[1] = tested on: male C57/B6 mice; test: microRNA profile of plasma, acetaminophen treatment group vs control group; type: in vivo; settings: 300 mg/kg single intraperitoneal injection, 24 hours post exposure, FIG. 3
Protocol: Approximately, 800 μl of QIAzol lysis reagent was added to 200 μl liquid sample. The sample was mixed in a tube followed by adding 200 μl of chloroform. After mixing rigorously for 15 seconds, the sample was then centrifuged at 12,000×g for 15 minutes. The upper aqueous phase was carefully transferred to a new collection tube, and 1.5 total volumes of ethanol was added. The sample was then applied directly to a glass membrane containing column and the RNA was bound and purified by three contiguous washing to remove unwanted contamination. The immobilized RNA was then collected from the membrane with a low salt elution buffer.
The male C57/B6 mice were randomly grouped into two groups, a treatment group (3 animals) and control group (4 animals). […] Mice were sacrificed at 24 hours post exposure, the plasma samples were collected and RNA was isolated.
The expression levels of microRNA sequences in the serum were used to make a microRNA profile. The differentially expressed microRNA sequences between the treatment group and the control group were clustered with the Hierarchical clustering method and is shown in FIG. 3.

[2] = tested on: male C57/B6 mice; settings: mouse, in vivo
Protocol: Quantitative PCR (QPCR) with microRNA specific primer sets were used to confirm the results from array hybridization. In brief, a SYBR Green based method, miScript real-time PCR (Qiagen Inc. Valencia, Calif., USA), or TaqMan primer set from Apply Biosystems, was used with 50 ng of total RNA from each sample. The first strand cDNA was generated according to the manufacturer's instruction. Approximately 2.5 ng of cDNA was used in the PCR reaction. The yield of 18 to 20 base pair fragments (based on SYBR Green intensity) corresponding to the specific microRNA species was monitored with the 7900HT fast real-time PCR system from Applied Biosystems (Applied Biosystems, Foster City, Calif.). QPCR results were analyzed by SDS 2.2.2, with a manual CT threshold value of 0.2.
The male C57/B6 mice were randomly grouped into nine different groups with 4 animals in each group. […] Mice were sacrificed and plasma samples were collected at 1, 3 and 24 hours post-exposure. The nine groups were: 1) 1 hour control; 2) 1 hour treatment 1; 3) 1 hour treatment 2; 4) 1 hour treatment 3; 5) 3 hour control; 6) 3 hour treatment 1; 7) 3 hour treatment 2; 8) 3 hour treatment 3; and 9) 24 hour treatment 3. […] The expression levels of two different microRNA sequences, mir-486 and mir-122, in the serum were profiled by quantitative polymerase chain reactions (Q-PCR). […]

- mir-486 and mir-122 intensities at one hour [2]: Clear changes
SMILES: CC(=O)Nc1ccc(O)cc1 [acetaminophen]
- levels of microRNA sequences in serum/plasma, treatment vs control [1]: levels of certain microRNA sequences in the serum could be used as an indication of the acetaminophen toxicity
